Results as given in ChEMBL document CHEMBL1201861, “Genomics of Drug Sensitity in Cancer screening data, Wellcome Trust Sanger Institute”.
Structures can show the parent of a compound that is named as a salt.

Tests used:
LP-1 = experiment: cells; format: functional, cell-based, Homo sapiens; details: Homo sapiens, LP-1;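 also: growth inhibition of human LP-1 cells, with the read-out taken from a cell viability assay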
Description: SANGER: Inhibition of human LP-1 cell growth in a cell viability assay.

NCI-H1436 = experiment: cells; format: functional, cell-based, Homo sapiens; details: Homo sapiens, NCI-H1436;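 also: growth suppression of human NCI-H1436 cells, determined with a cell viability readout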
Description: SANGER: Inhibition of human NCI-H1436 cell growth in a cell viability assay.

HT-3 = experiment: cells; format: functional, cell-based, Homo sapiens; details: Homo sapiens, HT-3;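 also: growth inhibition measured with a cell viability readout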
Description: SANGER: Inhibition of human HT-3 cell growth in a cell viability assay.

K052 = experiment: cells; format: functional, cell-based, Homo sapiens; details: Homo sapiens, K052;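 also: Read-out from a cell viability assay, IC50 reflecting suppression of K052 cell growth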
Description: SANGER: Inhibition of human K052 cell growth in a cell viability assay.

PC-3 = experiment: cells; format: functional, cell-based, Homo sapiens; details: Homo sapiens, PC-3
Description: SANGER: Inhibition of human PC-3 cell growth in a cell viability assay.

HuCCT-1 = experiment: cells; format: functional, cell-based, Homo sapiens, HuCCT1; details: Homo sapiens, HuCCT-1;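 also: growth inhibition of HuCCT-1 cells, read out by a cell viability assay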
Description: SANGER: Inhibition of human HuCCT1 cell growth in a cell viability assay.

OE33 = experiment: cells; format: functional, cell-based, Homo sapiens; details: Homo sapiens, OE33;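 also: growth inhibition of human OE33 cells, measured by a cell viability assay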
Description: SANGER: Inhibition of human OE33 cell growth in a cell viability assay.

ST486 = experiment: SANGER: Inhibition of human ST486 cell growth in a cell viability assay.; format: functional, cell-based; details: Homo sapiens, ST486
HCC1954 = experiment: cells; format: functional, cell-based, Homo sapiens; details: Homo sapiens, HCC1954;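 also: growth inhibition of human HCC1954 cells, read out with a cell viability assay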
Description: SANGER: Inhibition of human HCC1954 cell growth in a cell viability assay.

SW1573 = experiment: cells; format: functional, cell-based, Homo sapiens; details: Homo sapiens, SW1573;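 also: growth inhibition of SW1573 cells, read out with a cell viability assay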
Description: SANGER: Inhibition of human SW1573 cell growth in a cell viability assay.

MHH-CALL-2 = experiment: cells; format: functional, cell-based, Homo sapiens; details: Homo sapiens, MHH-CALL-2;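 also: growth inhibition of the cell line, read out in a cell viability assay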
Description: SANGER: Inhibition of human MHH-CALL-2 cell growth in a cell viability assay.

SW837 = experiment: cells; format: functional, cell-based, Homo sapiens; details: Homo sapiens, SW837;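 also: growth inhibition of SW837 cells, determined with a cell viability assay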
Description: SANGER: Inhibition of human SW837 cell growth in a cell viability assay.

Raji = experiment: cells; format: functional, cell-based, Homo sapiens; details: Homo sapiens, Raji;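 also: cell viability assay measuring inhibition of Raji cell growth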
Description: SANGER: Inhibition of human Raji cell growth in a cell viability assay.

COLO-679 = experiment: cells; format: functional, cell-based, Homo sapiens; details: Homo sapiens, COLO-679
Description: SANGER: Inhibition of human COLO-679 cell growth in a cell viability assay.

KYSE-140 = experiment: cells; format: functional, cell-based, Homo sapiens; details: Homo sapiens, KYSE-140;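 also: cell viability assay measuring growth inhibition in human KYSE-140 cells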
Description: SANGER: Inhibition of human KYSE-140 cell growth in a cell viability assay.

CAL-33 = experiment: cells; format: functional, cell-based, Homo sapiens; details: Homo sapiens, CAL-33;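 also: growth inhibition of CAL-33 cells, read out with a cell viability assay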
Description: SANGER: Inhibition of human CAL-33 cell growth in a cell viability assay.

DG-75 = experiment: cells; format: functional, cell-based, Homo sapiens; details: Homo sapiens, DG-75;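 also: growth inhibition of DG-75 cells, read out with a cell viability assay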
Description: SANGER: Inhibition of human DG-75 cell growth in a cell viability assay.

BL-41 = experiment: cells; format: functional, cell-based, Homo sapiens; details: Homo sapiens, BL-41;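 also: growth inhibition of human BL-41 cells, read out with a cell viability assay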
Description: SANGER: Inhibition of human BL-41 cell growth in a cell viability assay.

NCI-H292 = experiment: cells; format: functional, cell-based, Homo sapiens; details: Homo sapiens, NCI-H292;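 also: growth inhibition of NCI-H292 cells, read out with a cell viability assay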
Description: SANGER: Inhibition of human NCI-H292 cell growth in a cell viability assay.

NCI-H1882 = experiment: cells; format: functional, cell-based, Homo sapiens; details: Homo sapiens, NCI-H1882;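 also: growth inhibition of the cell line, determined with a viability assay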
Description: SANGER: Inhibition of human NCI-H1882 cell growth in a cell viability assay.

SW-620 = experiment: cells; format: functional, cell-based, Homo sapiens; details: Homo sapiens, SW-620;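 also: growth inhibition of human SW-620 cells, measured by a cell viability assay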
Description: SANGER: Inhibition of human SW620 cell growth in a cell viability assay.

SR = experiment: cells; format: functional, cell-based, Homo sapiens; details: Homo sapiens, SR
Description: SANGER: Inhibition of human SR cell growth in a cell viability assay.

PF-382 = experiment: cells; format: functional, cell-based, Homo sapiens; details: Homo sapiens, PF-382
Description: SANGER: Inhibition of human PF-382 cell growth in a cell viability assay.

COR-L279 = experiment: SANGER: Inhibition of human COR-L279 cell growth in a cell viability assay.; format: functional, cell-based; details: Homo sapiens, COR-L279
SAS = experiment: cells; format: functional, cell-based, Homo sapiens; details: Homo sapiens, SAS;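 also: growth inhibition of SAS cells, read out with a cell viability assay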
Description: SANGER: Inhibition of human SAS cell growth in a cell viability assay.

COLO-678 = experiment: cells; format: functional, cell-based, Homo sapiens; details: Homo sapiens, COLO-678
Description: SANGER: Inhibition of human COLO-678 cell growth in a cell viability assay.

HuP-T3 = experiment: cells; format: functional, cell-based, Homo sapiens; details: Homo sapiens, HuP-T3;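 also: HuP-T3 cell growth inhibition, read out with a cell viability assay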
Description: SANGER: Inhibition of human HuP-T3 cell growth in a cell viability assay.

HN = experiment: cells; format: functional, cell-based, Homo sapiens; details: Homo sapiens, HN
Description: SANGER: Inhibition of human HN cell growth in a cell viability assay.

REH = experiment: cells; format: functional, cell-based, Homo sapiens; details: Homo sapiens, REH;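 also: growth inhibition of REH cells determined with a cell viability read-out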
Description: SANGER: Inhibition of human REH cell growth in a cell viability assay.

NCI-H810 = experiment: cells; format: functional, cell-based, Homo sapiens; details: Homo sapiens, NCI-H810;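 also: IC50 reflects inhibition of cancer cell line growth, read out with a cell viability assay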
Description: SANGER: Inhibition of human NCI-H810 cell growth in a cell viability assay.

NCI-H1417 = experiment: cells; format: functional, cell-based, Homo sapiens; details: Homo sapiens, NCI-H1417;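 also: human NCI-H1417 cells, growth inhibition determined with a cell viability readout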
Description: SANGER: Inhibition of human NCI-H1417 cell growth in a cell viability assay.

KARPAS-422 = experiment: cells; format: functional, cell-based, Homo sapiens; details: Homo sapiens, KARPAS-422
Description: SANGER: Inhibition of human KARPAS-422 cell growth in a cell viability assay.

OVCAR-8 = experiment: cells; format: functional, cell-based, Homo sapiens; details: Homo sapiens, OVCAR-8;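 also: growth inhibition of human OVCAR-8 cells, read out by a cell viability assay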
Description: SANGER: Inhibition of human OVCAR-8 cell growth in a cell viability assay.

LoVo = experiment: cells; format: functional, cell-based, Homo sapiens; details: Homo sapiens, LoVo;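 also: growth inhibition of human LoVo cells, read out with a cell viability assay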
Description: SANGER: Inhibition of human LoVo cell growth in a cell viability assay.

MDA-MB-134-VI = experiment: cells; format: functional, cell-based, Homo sapiens; details: Homo sapiens, MDA-MB-134-VI
Description: SANGER: Inhibition of human MDA-MB-134-VI cell growth in a cell viability assay.

RPMI-7951 = experiment: cells; format: functional, cell-based, Homo sapiens; details: Homo sapiens, RPMI-7951
Description: SANGER: Inhibition of human RPMI-7951 cell growth in a cell viability assay.

UACC-812 = experiment: cells; format: functional, cell-based, Homo sapiens; details: Homo sapiens, UACC-812
Description: SANGER: Inhibition of human UACC-812 cell growth in a cell viability assay.

NCI-H1651 = experiment: cells; format: functional, cell-based, Homo sapiens; details: Homo sapiens, NCI-H1651;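 also: Read-out is a cell viability assay, with IC50 expressing inhibition of NCI-H1651 cell growth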
Description: SANGER: Inhibition of human NCI-H1651 cell growth in a cell viability assay.

CWR22R = experiment: cells; format: functional, cell-based, Homo sapiens; details: Homo sapiens, 22Rv1;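 also: growth inhibition of 22Rv1 cells, read out with a cell viability assay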
Description: SANGER: Inhibition of human 22RV1 cell growth in a cell viability assay.

BXPC-3 = experiment: cells; format: functional, cell-based, Homo sapiens; details: Homo sapiens, BXPC-3;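 also: growth inhibition of human BxPC-3 cells, read out by a cell viability assay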
Description: SANGER: Inhibition of human BxPC-3 cell growth in a cell viability assay.

KYSE-510 = experiment: cells; format: functional, cell-based, Homo sapiens; details: Homo sapiens, KYSE-510;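 also: cell viability readout used to measure how strongly growth of the cell line is suppressed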
Description: SANGER: Inhibition of human KYSE-510 cell growth in a cell viability assay.

OE19 = experiment: cells; format: functional, cell-based, Homo sapiens; details: Homo sapiens, OE19;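 also: growth inhibition of OE19 cells, measured through a cell viability read-out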
Description: SANGER: Inhibition of human OE19 cell growth in a cell viability assay.

HCC1599 = experiment: cells; format: functional, cell-based, Homo sapiens; details: Homo sapiens, HCC1599;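 also: growth inhibition of HCC1599 cells, read out in a cell viability assay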
Description: SANGER: Inhibition of human HCC1599 cell growth in a cell viability assay.

769-P = experiment: cells; format: functional, cell-based, Homo sapiens; details: Homo sapiens, 769-P
Description: SANGER: Inhibition of human 769-P cell growth in a cell viability assay.

A-427 = experiment: cells; format: functional, cell-based, Homo sapiens; details: Homo sapiens, A-427;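 also: growth inhibition of human A-427 cells, read out by a cell viability assay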
Description: SANGER: Inhibition of human A427 cell growth in a cell viability assay.

HGC-27 = experiment: cells; format: functional, cell-based, Homo sapiens; details: Homo sapiens, HGC-27;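 also: growth inhibition of human HGC-27 cells, read out in a cell viability assay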
Description: SANGER: Inhibition of human HGC-27 cell growth in a cell viability assay.

NCI-H2196 = experiment: cells; format: functional, cell-based, Homo sapiens; details: Homo sapiens, NCI-H2196;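 also: cell viability assay used as the readout of growth inhibition in NCI-H2196 cells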
Description: SANGER: Inhibition of human NCI-H2196 cell growth in a cell viability assay.

Compound: COc1cccc2c1C(=O)c1c(O)c3c(c(O)c1C2=O)C[C@@](O)(C(=O)CO)C[C@@H]3O[C@H]1C[C@H](N)[C@H](O)[C@H](C)O1 [DOXORUBICIN]
- IC50 (LP-1): > 1020 nM
- IC50 (NCI-H1436): > 1020 nM
- IC50 (HT-3): 133 nM
- IC50 (K052): > 1020 nM
- IC50 (PC-3): 957 nM
- IC50 (HuCCT-1): 72.9 nM
- IC50 (OE33): 426 nM
- IC50 (ST486): 15.5 nM
- IC50 (HCC1954): 541 nM
- IC50 (SW1573): 82.8 nM
- IC50 (MHH-CALL-2): 359 nM
- IC50 (SW837): 118 nM
- IC50 (Raji): 335 nM
- IC50 (COLO-679): 16 nM
- IC50 (KYSE-140): 50.4 nM
- IC50 (CAL-33): 67.9 nM
- IC50 (DG-75): 666 nM
- IC50 (BL-41): 122 nM
- IC50 (NCI-H292): 43.8 nM
- IC50 (NCI-H1882): 215 nM
- IC50 (SW-620): 26.6 nM
- IC50 (SR): 24.4 nM
- IC50 (PF-382): 67.2 nM
- IC50 (COR-L279): 56.9 nM
- IC50 (SAS): 114 nM
- IC50 (COLO-678): 427 nM
- IC50 (HuP-T3): 166 nM
- IC50 (HN): 354 nM
- IC50 (REH): 8.11 nM
- IC50 (NCI-H810): 18.8 nM
- IC50 (NCI-H1417): 370 nM
- IC50 (KARPAS-422): 193 nM
- IC50 (OVCAR-8): 61.9 nM
- IC50 (LoVo): 81.8 nM
- IC50 (MDA-MB-134-VI): > 1020 nM
- IC50 (RPMI-7951): 130 nM
- IC50 (UACC-812): > 1020 nM
- IC50 (NCI-H1651): 11.8 nM
- IC50 (CWR22R): 21.2 nM
- IC50 (BXPC-3): 211 nM
- IC50 (KYSE-510): 15.5 nM
- IC50 (OE19): 200 nM
- IC50 (HCC1599): 72.5 nM
- IC50 (769-P): 20.8 nM
- IC50 (A-427): 11.8 nM
- IC50 (HGC-27): 13.6 nM
- IC50 (NCI-H2196): 229 nM

Compound: COC1=CC(c2cc3ccccc3[nH]2)=N/C1=C\c1[nH]c(C)cc1C [OBATOCLAX MESYLATE]
- IC50 (LP-1): 213 nM
- IC50 (NCI-H1436): 1260 nM
- IC50 (HT-3): 1310 nM
- IC50 (K052): 940 nM
- IC50 (PC-3): 1750 nM
- IC50 (HuCCT-1): 83.3 nM
- IC50 (OE33): 251 nM
- IC50 (ST486): < 62.5 nM
- IC50 (HCC1954): 5860 nM
- IC50 (SW1573): 2020 nM
- IC50 (MHH-CALL-2): 609 nM
- IC50 (SW837): 467 nM
- IC50 (Raji): 1020 nM
- IC50 (COLO-679): < 62.5 nM
- IC50 (KYSE-140): < 62.5 nM
- IC50 (CAL-33): 508 nM
- IC50 (DG-75): 6890 nM
- IC50 (BL-41): 62.2 nM
- IC50 (NCI-H292): 176 nM
- IC50 (NCI-H1882): 4510 nM
- IC50 (SW-620): < 62.5 nM
- IC50 (SR): < 62.5 nM
- IC50 (PF-382): 49.4 nM
- IC50 (COR-L279): 572 nM
- IC50 (SAS): 273 nM
- IC50 (COLO-678): 3380 nM
- IC50 (HuP-T3): 528 nM
- IC50 (HN): < 62.5 nM
- IC50 (REH): 46.4 nM
- IC50 (NCI-H810): 117 nM
- IC50 (NCI-H1417): 265 nM
- IC50 (KARPAS-422): 166 nM
- IC50 (OVCAR-8): 31.1 nM
- IC50 (LoVo): 87.2 nM
- IC50 (MDA-MB-134-VI): 4030 nM
- IC50 (RPMI-7951): 510 nM
- IC50 (UACC-812): 11700 nM
- IC50 (NCI-H1651): 497 nM
- IC50 (CWR22R): 274 nM
- IC50 (BXPC-3): 74.6 nM
- IC50 (KYSE-510): < 62.5 nM
- IC50 (OE19): 1660 nM
- IC50 (HCC1599): 500 nM
- IC50 (769-P): < 62.5 nM
- IC50 (A-427): 85.1 nM
- IC50 (HGC-27): < 62.5 nM
- IC50 (NCI-H2196): 3350 nM
